Source: patent US8536180B2, “Pyrimidine inhibitors of kinase activity” (AbbVie Inc., priority 2009, dated 2013)

Target: T1, C-terminal GST-tagged, recombinant, human IGF-1R, amino acids 954-1367 (Homo sapiens, UniProt P08069)
T1 construct: human IGF-1R, amino acids 954-1367 expressed by baculovirus in Sf21 cells; GST (C); purchased Cell Signaling Technology; host or cells: baculovirus in Sf21 cells
Assay: IGF-1R homogenous time-resolved fluorescence (HTRF) in vitro kinase assay
Type: biochemical
Settings: IGF-1R kinase, ATP 50 μM final, biotinylated peptide substrate 0.5 μM, 60 minutes at room temperature

T1 sequence (P08069 954-1367): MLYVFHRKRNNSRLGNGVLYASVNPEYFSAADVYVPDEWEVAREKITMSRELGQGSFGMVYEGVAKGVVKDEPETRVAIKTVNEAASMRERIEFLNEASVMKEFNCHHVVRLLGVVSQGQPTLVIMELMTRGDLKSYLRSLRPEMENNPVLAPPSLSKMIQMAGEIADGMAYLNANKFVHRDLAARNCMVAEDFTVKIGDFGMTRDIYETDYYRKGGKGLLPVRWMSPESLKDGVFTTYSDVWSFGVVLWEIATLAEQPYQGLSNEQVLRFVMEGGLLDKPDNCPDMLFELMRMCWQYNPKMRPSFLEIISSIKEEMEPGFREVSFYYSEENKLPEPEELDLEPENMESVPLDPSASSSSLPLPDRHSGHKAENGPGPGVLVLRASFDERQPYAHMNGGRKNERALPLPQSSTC

IC50 [µM] | SMILES
0.101 to 0.5 | c1ccc(Nc2nccc(-c3c(-c4ccc5nc(-c6ccccc6)[nH]c5c4)nc4ccccn34)n2)cc1 [Example 11, N-phenyl-4-[2-(2-phenyl-1H-benzimidazol-6-yl)imidazo[1,2-a]pyridin-3-yl]pyrimidin-2-amine]
0.01 to 0.05 | OCCn1cc(Nc2nccc(-c3c(-c4ccc5[nH]c(-c6ccccc6)nc5c4)nc4ccccn34)n2)cn1 [Example 36, 2-[4-({4-[2(2-phenyl-1H-benzimidazol-5-yl)imidazo[1,2-a]pyridin-3-yl]pyrimidin-2-yl}amino)-1H-pyrazol-1-yl]ethanol]
0.101 to 0.5 | Fc1ccc(Nc2nccc(-c3c(-c4ccc5[nH]c(Cc6ccccc6)nc5c4)nc4ccccn34)n2)c(F)c1 [Example 41, 4-[2-(2-benzyl-1H-benzimidazol-5-yl)imidazo[1,2-a]pyridin-3-yl]-N-(2,4-difluorophenyl)pyrimidin-2-amine]
< 0.01 | COc1cc(N2CCC(N3CCN(C)CC3)CC2)ccc1Nc1nccc(-c2c(-c3ccc4[nH]c(Cc5ccccc5)nc4c3)nc3ccccn23)n1 [Example 22, 4-[2-(2-benzyl-1H-benzimidazol-5-yl)imidazo[1,2-a]pyridin-3-yl]-N-{2-methoxy-4-[4-(4-methylpiperazin-1-yl)piperidin-1-yl]phenyl}pyrimidin-2-amine]
0.01 to 0.05 | OCCn1cc(Nc2nccc(-c3c(-c4ccc5[nH]c(Cc6ccccc6)nc5c4)nc4ccccn34)n2)cn1 [Example 37, 2-[4-({4-[2(2-benzyl-1H-benzimidazol-5-yl)imidazo[1,2-a]pyridin-3-yl]pyrimidin-2-yl}amino)-1H-pyrazol-1-yl]ethanol]
0.01 to 0.05 | COc1cc(N2CCOCC2)ccc1Nc1nccc(-c2c(-c3ccc4nc(-c5ccccc5)[nH]c4c3)nc3ccccn23)n1 [Example 27, N-(2-methoxy-4-morpholin-4-ylphenyl)-4-[2-(2-phenyl-1H-benzimidazol-6-yl)imidazo[1,2-a]pyridin-3-yl]pyrimidin-2-amine]
0.101 to 0.5 | O=c1[nH]cccc1Nc1nccc(-c2c(-c3ccc4[nH]c(Cc5ccccc5)nc4c3)nc3ccccn23)n1 [Example 29, 3-({4-[2-(2-benzyl-1H-benzimidazol-5-yl)imidazo[1,2-a]pyridin-3-yl]pyrimidin-2-yl}amino)pyridin-2(1H)-one]
0.01 to 0.05 | COc1cc(N(C)CCO)ccc1Nc1nccc(-c2c(-c3ccc4nc(Cc5ccccc5)[nH]c4c3)nc3ccccn23)n1 [Example 48, 2-[[4-({4-[2-(2-benzyl-1H-benzimidazol-6-yl)imidazo[1,2-a]pyridin-3-yl]pyrimidin-2-yl}amino)-3-methoxyphenyl](methyl)amino]ethanol]
0.051 to 0.1 | CS(=O)(=O)c1ccc(Nc2nccc(-c3c(-c4ccc5nc(Cc6ccccc6)[nH]c5c4)nc4ccccn34)n2)cc1 [Example 18, 4-[2-(2-benzyl-1H-benzimidazol-6-yl)imidazo[1,2-a]pyridin-3-yl]-N-[4-(methylsulfonyl)phenyl]pyrimidin-2-amine]
0.01 to 0.05 | COc1cc(N2CCOCC2)ccc1Nc1nccc(-c2c(-c3ccc4nc(Cc5c(F)cccc5F)[nH]c4c3)nc3ccccn23)n1 [Example 21, 4-{2-[2-(2,6-difluorobenzyl)-1H-benzimidazol-6-yl]imidazo[1,2-a]pyridin-3-yl}-N-(2-methoxy-4-morpholin-4-ylphenyl)pyrimidin-2-amine]
0.051 to 0.1 | c1ccc(Cc2nc3ccc(-c4nc5sccn5c4-c4ccnc(Nc5ccccc5)n4)cc3[nH]2)cc1 [Example 23, 4-[6-(2-benzyl-1H-benzimidazol-6-yl)imidazo[2,1-b][1,3]thiazol-5-yl]-N-phenylpyrimidin-2-amine]
0.01 to 0.05 | CCn1cc(-c2ccnc(Nc3cccc(CN(C)C)c3)n2)c(-c2ccc3[nH]c(Cc4ccccc4)nc3c2)n1 [Example 63, 4-[3-(2-benzyl-1H-benzimidazol-5-yl)-1-ethyl-1H-pyrazol-4-yl]-N-{3-[(dimethylamino)methyl]phenyl}pyrimidin-2-amine]
